Laboratory results reported in paper PMC8403366, “Functional significance of gain-of-function H19 lncRNA in skeletal muscle differentiation and anti-obesity effects” (Genome Medicine, 2021).

Legend:
Type in all cases: in vivo, mouse
C57BL/6 J mice [1] = assay: Skeletal muscle immunostaining, fiber number/area, fiber typing, SDH staining
Experimental: Skeletal muscles were collected and fixed in 10% Neutral Buffered Formalin at 4 °C for 1 h, followed by 10% sucrose/PBS overnight and then 18% sucrose/PBS overnight at 4 °C before being frozen embedded and sectioned. For immunostaining, frozen cross-sections of muscle were fixed in 4% paraformaldehyde for 5 min, washed, permeabilized with 0.5% Triton X-100, and stained with indicated primary antibodies. After extensive washing in PBS-0.05% Triton X-100, the secondary antibody was added and incubated for 1 h. After extensive washing in PBS-0.05% Triton X-100, nuclei were stained with Vectashield Antifade Mounting Medium with DAPI (Vector Laboratories). Images of laminin-stained fibers were taken by Zeiss microscope. Muscle cross-sectional area and fiber numbers were quantified by ImageJ. Immunostained tissue slides were obtained with Vectra Polaris Multispectral Imaging scanner (PerkinElmer). The quantification of IF staining density was performed by Image-pro plus 6.0 (Media Cybernetics) and calculated based on the average staining intensity and the percentage of positively stained cells. To quantify myotube fusion, fusion index was calculated by dividing the number of nuclei in MHC-positive myotubes with ≥ 3 nuclei by the total number of nuclei analyzed in a field.
Muscle fiber-type immunofluorescence staining was performed with antibodies to MHC type I (supernatant, DSHB, BA-D5), MHC type IIa (supernatant, DSHB, SC-71), and MHC type IIb (supernatant, DSHB, BF-F3), as previously described. Type IIx fibers are not recognized by these antibodies and appeared black. Succinic dehydrogenase (SDH) staining was used to assess metabolic fiber type switch. Frozen cross-sections of muscle were allowed to equilibrate to room temperature and then incubated in a solution containing Nitroblue tetrazolium and sodium succinate for 20 min. Sections were washed 3 times in PBS, dehydrated in ethanol, and mounted with an aqueous mounting medium (Vector Laboratories). The antibodies used are listed in the Additional file 3: Table S3.

C57BL/6 J mice [2] = assay: Echocardiography and diaphragm/aorta histology; details: vs AGR-Scr
Experimental: The heart function of the mice was assessed using functional rodent echocardiography. After their body hair from the neckline to mid chest level was removed with hair removal cream, the mice were anesthetized with 2% isoflurane in the induction chamber and placed in a supine position atop a heating pad to maintain body temperature. The concentration of isoflurane was adjusted to keep a target heart rate of 450 ± 50 beats per minute (bpm). A rectal probe was gently inserted to continuously monitor and adjust body temperature (37.0 °C ± 0.5 °C) via the heating pad. Electrode gel was applied to all four paws, which were then taped to the ECG electrodes. The mice were subjected to transthoracic echo using Vevo 2100 (MS-550D, 22–55 MHz, VisualSonics Inc.).
Tissues were fixed in 10% Neutral Buffered Formalin embedded in paraffin, sectioned at 5 μm, and stained with hematoxylin/eosin (H&E). Detection of H19 expression using a RNAScope probe (designed by Advanced Cell Diagnostics) was performed on mouse tissues with a RNAScope 2.0 High Definition Assay kit according to the manufacturer's instructions (Advanced Cell Diagnostics). The images were visualized with a Zeiss Axioskop2 plus Microscope, and the slides were scanned on the Automated Cellular Image System III for quantification by digital image analysis.

C57BL/6 J mice [3] = assay: Glucose and insulin tolerance tests; details: n = 5
Experimental: Insulin (ITT) and glucose (GTT) tolerance tests were performed on 6-h fasted male and female mice fed with chow or HFD. Glucose values were measured using AimStrip® Plus Blood Glucose Meter (VWR) by tail snip. Glucose (1 g per kg body weight) or human insulin (0.75 U per kg body weight) was injected intraperitoneally (i.p.) after baseline glucose levels were measured in each mouse, and blood glucose levels were measured 15, 30, 45, 60, and 90 min after injection.

C57BL/6 J mice [4] = assay: Liver Oil Red O / H&E staining and WAT adipocyte size
Experimental: H&E staining was performed in paraffin-embedded livers to visualize the pattern of lipid accumulation and inflammatory status. Lipid droplet accumulation in the liver was visualized using Oil Red O (O0625, Sigma) staining of frozen liver sections prepared in an optimum cutting temperature (O.C.T.) compound (4585, Fisher Scientific). Histopathology images were acquired with a light microscope (Olympus). Adipocyte size (from WAT) was determined with ImageJ software. Sections from five animals per group were used and at least 500 adipocytes per animal were measured from multiple fields.

[5] = HFD-fed mice, staining intensity, n = 8
[6] = WT mice, 1 mg/kg i.p. every 3 days, 12 weeks, immunofluorescence, n = 8
[7] = WT mice, MHC isoform immunolabeling, vs AGR-Scr, n = 5

Which “fiber area in TA” value (C57BL/6 J mice [1]; HFD-fed mice, n = 10, 9) does the source give for “N-terminal-ELTNEIPAELTNEIPA-Linker-5'-[2’-F-C][2’-F-U][2’-F-C][2’-F-U][2’-F-U][2’-F-U][2’-F-A][2’-F-U][2’-F-U][2’-F-U][2’-F-C][2’-F-U][2’-F-G][2’-F-A][2’-F-G][2’-F-C][2’-F-U][2’-F-U][2’-F-U][2’-F-C][2’-F-C][2’-F-U][2’-F-A][2’-F-U][2’-F-C][2’-F-U][2’-F-U][2’-F-U][2’-F-C][2’-F-C]-3' [AGR-H19-Rgof]” here?
The value was “increased”.

What about the “Ub-DMD in TA” value (C57BL/6 J mice [1]; [5]) of the same substance?
Its value is “reduced”.

What about the “expression of DMD in TA” value (C57BL/6 J mice [1]; [5]) of the same substance?
Its value is “increased”.

And the “DMD protein status in TA” value (C57BL/6 J mice [1]; [6])?
The value was “increased DMD protein status”.

What about the “DRP2 protein status in TA” value (C57BL/6 J mice [1]; [6]) of the same substance?
Its value is “improved protein status”.

And the “nNOS protein status in TA” value (C57BL/6 J mice [1]; [6])?
The value was “improved protein status”.

What about the “β-dystroglycan protein status in TA” value (C57BL/6 J mice [1]; [6]) of the same substance?
The value was “improved protein status”.

And the “fast glycolytic fiber type IIb in QUAD, SOL and TA” value (C57BL/6 J mice [1]; [7])?
The value was “substantial shift toward”.

And the “percentage of fast oxidative fiber type IIa in QUAD, SOL and TA” value (C57BL/6 J mice [1]; [7])?
Its value is “reduced percentage”.

What about the “SDH+ fibers in QUAD” value (C57BL/6 J mice [1]; WT mice, vs AGR-Scr, n = 5) of the same substance?
Its value is “reduced SDH+”.

What about the “SDH+ in TA and GAS” value (C57BL/6 J mice [1]; WT mice, vs AGR-Scr, n = 5) of the same substance?
The value was “minimally altered”.

What about the “SDH+ muscle staining in SOL and EDL” value (C57BL/6 J mice [1]; WT mice, vs AGR-Scr, n = 5) of the same substance?
Its value is “increased SDH+”.

What about the “type I fibers in SOL” value (C57BL/6 J mice [1]; WT mice, vs AGR-Scr, n = 5) of the same substance?
The value was “marginally reduced”.

And the “type II fibers in SOL” value (C57BL/6 J mice [1]; WT mice, vs AGR-Scr, n = 5)?
The value was “increased”.

And the “utrophin protein status in the quadriceps (QUAD)” value (C57BL/6 J mice [1]; WT mice, vs AGR-Scr, n = 8)?
The value was “increased”.

What about the muscle fiber area (C57BL/6 J mice [1]; WT mice, vs Scr mimics) of the same substance?
The muscle fiber area was “increased”.

And the “number of muscle fibers (SOL, EDL, TA, GAS, QUAD)” value (C57BL/6 J mice [1]; WT mice, vs Scr mimics, n = 5)?
Its value is “increased number”.

And the “LV end diastolic diameter, LV stroke volume, LV ejection fraction, LV fractional shortening, interventricular septal end diastole” value (C57BL/6 J mice [2]; echocardiography, n = 10)?
The value was “minimally affected”.

And the “aorta tunica media and tunica adventitia thickness” value (C57BL/6 J mice [2]; histology, n = 6)?
The value was “unaltered”.

And the diaphragm thickness (C57BL/6 J mice [2]; histology, n = 6)?
Its diaphragm thickness is “increased thickness”.

And the “glucose metabolism (GTT)” value (C57BL/6 J mice [3]; HFD-fed male mice)?
The value was “improved”.

And the “insulin resistance (ITT, serum insulin, HOMA-IR)” value (C57BL/6 J mice [3]; HFD-fed male mice)?
Its value is “alleviated”.

What about the “blood glucose levels in response to a glucose challenge (GTT)” value (C57BL/6 J mice [3]; WT male mice on chow, glucose 1 g per kg i.p.) of the same substance?
The value was “reduced”.

And the “blood glucose levels in response to an insulin challenge (ITT)” value (C57BL/6 J mice [3]; WT male mice on chow, insulin 0.75 U per kg i.p.)?
The value was “reduced”.

And the “fatty acid deposition in the liver and WAT” value (C57BL/6 J mice [4]; HFD-fed mice, H&E and Oil Red O, liver weight)?
The value was “significantly reduced”.

And the “adipocyte size in WAT” value (C57BL/6 J mice [4]; WT male mice on chow, H&E, vs AGR-Scr, n = 5)?
Its value is “reduced”.

And the “fatty acid accumulation in the liver” value (C57BL/6 J mice [4]; WT male mice on chow, Oil Red O, vs AGR-Scr, n = 8)?
The value was “reduced”.
